# Experimental data: patent US20030018166A1 (priority 2000, published 2003)
# “Also recorded” adds a separate entry of the source. Like-named read-outs stand apart in the source and are kept apart here.
# Key:
# [1] = molecular target: recombinant Icl (isocitrate lyase) (Mycobacterium tuberculosis, UniProt P9WKK7); test: biochemical; type: biochemical, M. tuberculosis (CSU93); settings: for inhibit the activity to approximately: 5 mM inhibitor concentration; for Ki: read-out: inhibition constants
# Sequence of recombinant Icl (isocitrate lyase) (P9WKK7 whole entry): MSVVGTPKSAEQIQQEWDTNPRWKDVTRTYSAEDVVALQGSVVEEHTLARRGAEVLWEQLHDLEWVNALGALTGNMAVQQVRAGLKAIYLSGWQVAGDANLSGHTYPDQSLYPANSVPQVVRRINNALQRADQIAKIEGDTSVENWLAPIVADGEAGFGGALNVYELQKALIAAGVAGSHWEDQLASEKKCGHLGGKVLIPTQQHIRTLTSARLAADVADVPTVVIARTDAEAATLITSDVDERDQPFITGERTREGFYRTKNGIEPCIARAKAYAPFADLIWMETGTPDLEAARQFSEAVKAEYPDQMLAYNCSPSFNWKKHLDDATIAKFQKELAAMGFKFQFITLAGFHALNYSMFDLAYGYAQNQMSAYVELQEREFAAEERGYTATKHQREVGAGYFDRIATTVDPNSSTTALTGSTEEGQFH
# [2] = tested on: O=C(O)CC(C(=O)O)C(O)C(=O)O; test: purified protein, by the assay type
# [3] = tested on: wild type M. smegmatis mc^2155; type: cell-based; settings: discs 30 mM and 60 mM
Compound,inhibitory effect on Icl activity [1],Ki [1],other results
O=C(O)CC(O)C(=O)O (stereo not shown) [malate],,,inhibit the activity to approximately [1]: approximately 50%
O=C(O)CC(=O)O [malonic acid],no inhibitory effect,,
O=C(O)[C@H](O)COP(=O)(O)O [3-Phosphoglycerate],no inhibitory effect,,
recombinant AceA (isocitrate lyase) (Mycobacterium tuberculosis CDC1551),,,"Km ([2]; other: Tricine-HCl buffer at pH 7.5, pH 7.5): 1300 µM"
C=C1CC(=O)OC1=O [itaconic anhydride],,190 µM,
C=C(CC(=O)O)C(=O)O [Itaconate],,120 µM,
recombinant Icl (isocitrate lyase) (Mycobacterium tuberculosis H37Rv),,,Km ([2]; other: Hanes-Woolf plot): 145 µM
O=C(O)CC[N+](=O)[O-] [3-nitropropionate],,3 µM,"effect on growth, inhibition zone around disc ([3]; grown on acetate): restricted to growth on acetate; also recorded: inhibitory; effect on growth, inhibition zone around disc ([3]; grown on glucose): not observed; also recorded: no effect"
O=C(O)CCC(=O)O [succinate],,,inhibitory effect on the recombinant enzyme [1]: did not reveal any inhibitory effect
O=C(O)[C@H](O)[C@@H](O)[C@H](O)[C@H](O)COP(=O)(O)O [6-phosphogluconate],no inhibitory effect,,
O=C(O)C(=O)O [Oxalate],,,inhibit the activity to approximately [1]: approximately 50%
"O=C(COP(=O)(O)O)[C@@H](O)[C@H](O)[C@H](O)COP(=O)(O)O [fructose-1,6-bisphosphate]",no inhibitory effect,,
"O=C(O)C(=O)CBr [bromopyruvate, 3-bromopyruvate]",,120 µM,"effect on growth, inhibition zone around disc ([3]; grown on glucose): no effect"
